{
  "source": "patent US11939377B2",
  "about": "“Affinity matured CD22-specific monoclonal antibody and uses thereof” (The U.S.A., as represented by the Secretary, Department of …, priority 2018, dated 2024)",
  "key": {"[1]": {"tested_on": "CD19 expression on ALL and DLBCL cell lines", "experiment": "CD19 expression on cell lines by flow cytometry after Bryostatin 1 exposure", "format": "cell-based, human", "conditions": "1 ng/ml, 24 hours", "description": "(§1) FIGS. 3A-3D: (FIG. 3A) Four cell lines (Nalm6, Kopn8, Pfieffer and Toldeo) were co-incubated with 1 ng/ml Bryostatin 1 for 24 hours and analyzed using flow cytometry one day after Bryostatin 1 exposure. Site density was analyzed using standardized Quantibrite-PE beads. (FIG. 3B) Cell lines were co-incubated with 1 ng/ml Bryostatin 1 for 24 hours, washed, and analyzed using flow cytometry at 1 and 7 days after Bryostatin 1 exposure. Fold change was calculated based on site density: (Cell line Bryostatin 1—Cell line DMSO)/Cell line DMSO. (FIG. 3C) NSG mice were injected with 1×10^6 GPF-positive Nalm6 leukemia cells on Day 0. Bryostatin 1 was administered at 0.8 μg/kg on Day 3. Mice were sacrificed 7 and 12 days after Bryostatin 1 injection and CD22 was evaluated by flow cytometry. (FIG. 3D) CD22-low relapse PDX cell line was cultured in vitro with 1 nmol/L Bryostatin 1 for 24 hours and measured for CD22 expression using CD22 antibody. […]\n(§2) FACS analysis of cell surface CAR and protein expression was performed using an LSR II Fortessa flow cytometer (BD Biosciences). CD22-CAR was detected by incubation with 22-Fc (R&D Systems), followed by incubation with human IgG-specific PE-F(ab)2 (Thermo Fisher Scientific). […] CD22 site density was determined using QuantiBrite-PE beads (BD Biosciences) using methods previously described (Jasper et al., Cytometry B Clin Cytom 80(2):83-90, 2011). […]"}, "Nalm6 leukemia cells": {"tested_on": "Nalm6 leukemia cells", "experiment": "CD22 expression on Nalm6 in NSG mice after a single dose of Bryostatin 1", "format": "in vivo", "conditions": "single dose I.P.", "description": "as §1, §2"}, "PKC-βII": {"target": "T1, PKC-βII (Homo sapiens, UniProt P05771)", "T1 construct": "Leukemia cell protein extracts were prepared by lysing cells with RIPA buffer; endogenous in cells; host or cells: Toledo, Kopn8, Nalm6", "T1 sequence (P05771 1-673 isoform P05771-2)": "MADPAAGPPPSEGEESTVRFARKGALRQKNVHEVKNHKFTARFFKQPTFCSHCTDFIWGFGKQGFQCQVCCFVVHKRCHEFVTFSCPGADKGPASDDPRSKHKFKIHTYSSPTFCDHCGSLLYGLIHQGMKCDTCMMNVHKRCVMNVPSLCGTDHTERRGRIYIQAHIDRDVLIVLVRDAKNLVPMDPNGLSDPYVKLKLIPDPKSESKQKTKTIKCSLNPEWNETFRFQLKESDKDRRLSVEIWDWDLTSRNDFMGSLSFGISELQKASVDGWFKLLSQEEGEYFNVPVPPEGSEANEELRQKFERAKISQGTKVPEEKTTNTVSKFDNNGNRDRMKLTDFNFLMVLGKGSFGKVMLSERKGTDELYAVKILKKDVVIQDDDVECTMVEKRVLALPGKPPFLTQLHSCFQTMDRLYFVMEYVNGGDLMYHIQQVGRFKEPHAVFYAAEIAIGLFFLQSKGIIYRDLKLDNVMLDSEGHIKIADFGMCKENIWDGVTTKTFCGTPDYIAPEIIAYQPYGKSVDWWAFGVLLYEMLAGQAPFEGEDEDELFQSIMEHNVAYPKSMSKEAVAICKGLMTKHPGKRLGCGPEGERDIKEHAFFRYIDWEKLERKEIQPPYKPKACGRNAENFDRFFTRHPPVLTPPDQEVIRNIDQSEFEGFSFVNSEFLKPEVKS", "experiment": "PKC-βII western blot of Bryostatin 1-treated cell lines", "format": "cell-based", "conditions": "24 hours exposure", "description": "FIGS. 10A-10E: (FIG. 10A) Three cell lines (Toldeo, Kopn8 and Nalm6) were co-incubated with Bryostatin 1 at varying concentrations for 24 hours. At 24 hours, cells were collected for protein kinase C (PKC)-βII isoform analysis by western blot. (FIG. 10B) KOPN8 or SEM cell lines were exposed to Bryostatin 1 for 16, 24, 48 or 72 hours. RNA was extracted from cells and analyzed using RNAseq. (FIG. 10C) Immunofluorescent staining of CD22 was conducted through permeabilization followed by staining of CD22. (FIG. 10D) Four cell lines were co-incubated with various combinations of Enzastaurin (10 μM), Staurosporine (100 μM), or Bryostatin 1 (1 nM) for 24 hours. CD22 expression was assessed using flow cytometry. MFI fold change=CD22 MFI^Bryostatin1/CD22 MFI^DMSO. (FIG. 10E) Cell lines were co-incubated with 1 nM Bryostatin 1 for 24 hours and measured for CD22 expression using CD22-PE antibody. MFI fold change=CD22 MFI^Bryostatin 1/CD22 MFI^DMSO.\nLeukemia cell protein extracts were prepared by lysing cells with RIPA buffer and heating at 98° C. for 5 minutes. The proteins were separated on an SDS-PAGE gel and transferred to a nitrocellulose membrane. The membranes were immunoblotted with antibodies PKC-βII and GAPDH (Abcam), overnight at 4° C. […]"}, "[2]": {"tested_on": "ALL and DLBCL tumor cells (Nalm6 site density lines and others)", "experiment": "In vitro cytokine / granzyme B production assay (ELISA), CAR T cells co-cultured with tumor cells", "format": "cell-based, human", "protocol": "For cytokine production assays, CAR or mock T cells were washed to remove IL-2 and re-suspended in RPMI medium. 1×10^5 effector cells were then co-cultured with tumor cells in RPMI at a 1:1 effector to target ratio in 96-well plates and incubated at 37° C. for 20 hours. The plates were spun at 1200 RPM for 6 minutes to pellet the cells, and cytokine concentrations in the culture supernatants were measured using IL-2 ELISA (R&D systems), IFNγ ELISA (R&D systems), or granzyme B ELISA (Thermo Fisher Scientific) kits according to the manufacturer's directions."}, "[3]": {"tested_on": "Nalm6, Nalm6 CRISPR variant, SEM or PDX leukemia", "experiment": "Nalm6 / SEM xenograft and PDX in vivo studies (IVIS luminescence)", "set-up": "species or system NSG mice"}, "[4]": {"tested_on": "CD22 expression on ALL and DLBCL cell lines (Nalm6, Kopn8, SEM, Pfeiffer, Toledo, PDX)", "conditions": "Biberacher et al. 2012; cited from earlier work"}, "[5]": {"conditions": "CAR T cells pre-treated 1 ng/ml 24 hours, co-culture with ALL or DLBCL cell lines"}},
  "data": [
    {"smiles": "CCC/C=C/C=C/C(=O)O[C@H]1/C(=C/C(=O)OC)C[C@H]2C[C@H]([C@@H](C)O)OC(=O)C[C@H](O)C[C@@H]3C[C@H](OC(C)=O)C(C)(C)[C@](O)(C[C@@H]4C/C(=C/C(=O)OC)C[C@H](/C=C/C(C)(C)[C@]1(O)O2)O4)O3", "note": "[Bryostatin 1]", "values": [
      {"measurement": "CD19 expression on ALL", "setting": "[1]", "value": "did not alter"},
      {"measurement": "CD19 expression on DLBCL", "setting": "[1]", "value": "modest increase"},
      {"measurement": "CD22 MFI on Nalm6 in vivo", "setting": "Nalm6 leukemia cells; 1 week", "value": "increased"},
      {"measurement": "CD22 expression on Nalm6 in vivo", "setting": "Nalm6 leukemia cells; 12 days post-drug administration", "value": "return to baseline expression"},
      {"measurement": "PKCβII protein levels on ALL", "setting": "PKC-βII", "value": "decreased"},
      {"measurement": "IFN-γ produced by pre-treated CD22 CAR relative to DMSO-control", "setting": "[2]; [5]", "value": "attenuated levels"},
      {"measurement": "granzyme B produced by pre-treated CD22 CAR relative to DMSO-control", "setting": "[2]; [5]", "value": "significantly increased levels"},
      {"measurement": "Granzyme B production by the CD19 CAR", "setting": "[2]; SEM cells exposed to 1 nM for 24 hours", "value": "did not show improved Granzyme B production"},
      {"measurement": "production of IL-2, IFN-γ, and granzyme B by the CD22 CAR", "setting": "[2]; pre-treatment of B-ALL and DLBCL target cells, 1 ng/ml 24 hours", "value": "significantly enhanced"},
      {"measurement": "durability of remission after subcurative dose of CD22 CART", "setting": "[3]; Nalm6 and SEM, 40 μg/kg once weekly for 2 weeks", "value": "improved durability of remission"},
      {"measurement": "efficacy of the CD19 CAR in vivo", "setting": "[3]; SEM, 40 μg/kg once weekly for 2 weeks", "value": "did not reduce efficacy"},
      {"measurement": "ability of CD22-CAR to attenuate progression of CD22^lo leukemia in vivo", "setting": "[3]; once weekly for 2 weeks after CD22 CART", "value": "did not impact"},
      {"measurement": "CD22 expression on chronic lymphocytic leukemia (CLL)", "setting": "[4]", "value": "increase CD22 expression"}
    ]}
  ]
}
